{
  "source": "patent US8444953B2",
  "about": "“Symmetric and asymmetric halogen-containing metallocarboranylporphyrins and uses thereof” (Brookhaven Science Associates, LLC, priority 2007, dated 2013)",
  "key": {"[1]": {"experiment": "Weight changes and hematologic parameters that indicate toxicity", "assay_type": "in vivo, mice", "details": "for % Weight change / Granulocytes / Lymphocytes / Platelets: 220 mg/kg (43 mg B/kg), median (range)"}, "[2]": {"tested_on": "BALB/c mice bearing subcutaneously implanted EMT-6 mammary carcinomas", "experiment": "Biodistribution of porphyrin XV in mice bearing EMT-6 carcinomas (boron analyses of tissues)", "assay_type": "in vivo", "details": "220 mg/kg (43 mg B/kg), 6 i.p. injections over 2 days, median (range), n = 5", "protocol": "Porphyrin compound (XV) was emulsified in 9% Cremophor EL and 18% propylene glycol in saline.\nTo prepare a solution of ˜3.7 mg/mL porphyrin in 9% Cremophor EL (CRM) and 18% propylene glycol (PRG), the porphyrin was dissolved in tetrahydrofuran (THF) (1.5% of the total volume) and then heated to 40° C. for 15 min. CRM (9% of total volume) was then added and the mixture was heated to 60° C., for 2 hours, which removed most of the THF. After cooling to room temperature, PRG (18% of total volume) was added, followed by slow dropwise addition of saline (71.5% of total volume) with rapid stirring. The solution was degassed by stirring under vacuum (˜30 mm Hg) for 30-60 min and then filtered (Millipore, 8 μm).\nBALB/c mice bearing subcutaneously implanted EMT-6 mammary carcinomas implanted on the dorsal thorax were given a total dose of 220 milligrams porphyrin compound XV per kilogram body weight (43 mg B/kg). At one and two days after the last injection, mice were euthanized, and tumor, blood, brain, and liver were removed for boron analyses. The blood was first analyzed for hematologic parameters that indicate toxicity before it was analyzed for boron."}, "[3]": {"details": "mice, 1 day after last injection"}, "[4]": {"details": "mice, 2 days after last injection"}},
  "note": "Marks after values point to notes of the source that are not given here.",
  "data": [
    {"substance": "Copper (II) 5,10,15-tris[3-o-carboranylmethoxyphenyl]-20-[2,6-difluorophenyl]porphyrin [Porphyrin XV]", "values": [
      {"measurement": "median % weight loss (in words)", "setting": "[1]; mice receiving porphyrin, 220 mg/kg", "result": "not significant"},
      {"measurement": "% Weight change", "setting": "[1]; [3]", "result": "−0.6 (−3.4-3.3) %"},
      {"measurement": "Granulocytes", "setting": "[1]; [3]", "result": "52 (49.8-65.1)"},
      {"measurement": "Lymphocytes", "setting": "[1]; [3]", "result": "44.3 (31.8-46.5)^b"},
      {"measurement": "Platelets", "setting": "[1]; [3]", "result": "374 (158-879)^a"},
      {"measurement": "% Weight change", "setting": "[1]; [4]", "result": "−0.2 (−3.3-3.8) %"},
      {"measurement": "Granulocytes", "setting": "[1]; [4]", "result": "54.0 (52.4-57.8)"},
      {"measurement": "Lymphocytes", "setting": "[1]; [4]", "result": "42.6 (38.4-44.1)"},
      {"measurement": "Platelets", "setting": "[1]; [4]", "result": "478 (91-661)^b"},
      {"measurement": "toxicity (in words)", "setting": "[1]; mice, 220 mg/kg, weight and hematologic parameters", "result": "quite mild and transient"},
      {"measurement": "Average boron concentration, Blood", "setting": "[2]; 1 day after last injection", "result": "47 (38-121) μg B/g"},
      {"measurement": "Average boron concentration, Brain", "setting": "[2]; 1 day after last injection", "result": "1.0 (0.6-1.7) μg B/g"},
      {"measurement": "Average boron concentration, EMT-6 Tumor", "setting": "[2]; 1 day after last injection", "result": "66 (24-153) μg B/g"},
      {"measurement": "Average boron concentration, Liver", "setting": "[2]; 1 day after last injection", "result": "300 (245-319) μg B/g"},
      {"measurement": "Average boron concentration, Skin (pinna)", "setting": "[2]; 1 day after last injection", "result": "5.9 (4.9-9.9) μg B/g"},
      {"measurement": "Average boron concentration, Blood", "setting": "[2]; 2 days after last injection", "result": "0.4 (0.3-4.5) μg B/g"},
      {"measurement": "Average boron concentration, Brain", "setting": "[2]; 2 days after last injection", "result": "0.1 (0-0.2) μg B/g"},
      {"measurement": "Average boron concentration, EMT-6 Tumor", "setting": "[2]; 2 days after last injection", "result": "88 (44-115) μg B/g"},
      {"measurement": "Average boron concentration, Liver", "setting": "[2]; 2 days after last injection", "result": "375 (364-419) μg B/g"},
      {"measurement": "Average boron concentration, Skin (pinna)", "setting": "[2]; 2 days after last injection", "result": "6.6 (3.6-8.1) μg B/g"}
    ]}
  ]
}
